The experiment concerns the target T1, human FPTase (Homo sapiens, UniProt P49354+P49356).
T1 construct: made in house
In words: In vitro inhibition of human farnesyl-protein transferase. The conditions noted are these: [3H]-FPP, 100 nM Ras-CVIM, 30 min, read-out: IC50 against human FPTase. Type of experiment: biochemical.

The values below come from US5981562A, “Inhibitors of farnesyl-protein transferase” (Merck & Co., Inc., priority 1997, dated 1999).

Structures can show the parent of a compound that is named as a salt.

For orientation: IC50 means the concentration that inhibits the measured activity by half.

For `CC(=O)N(CCNc1cccc(Cl)c1)Cc1cncn1Cc1ccc(C#N)cc1` [Example 1, N-[1-(4-cyanobenzyl)-5-imidazolylmethyl]-N-[2-((3-chlorophenyl)amino)ethyl]acetamide dihydrochloride], the IC50 is less than 10 µM.
